Experimental data as given in patent publication US9758492B2, “IDO inhibitors” (Bristol-Myers Squibb Company, priority 2013, dated 2017).

Target: IDO (Homo sapiens, UniProt P14902)
Test: LLE_IDO_ABS_DR (IDO assay)

Sequence of IDO (P14902 whole entry): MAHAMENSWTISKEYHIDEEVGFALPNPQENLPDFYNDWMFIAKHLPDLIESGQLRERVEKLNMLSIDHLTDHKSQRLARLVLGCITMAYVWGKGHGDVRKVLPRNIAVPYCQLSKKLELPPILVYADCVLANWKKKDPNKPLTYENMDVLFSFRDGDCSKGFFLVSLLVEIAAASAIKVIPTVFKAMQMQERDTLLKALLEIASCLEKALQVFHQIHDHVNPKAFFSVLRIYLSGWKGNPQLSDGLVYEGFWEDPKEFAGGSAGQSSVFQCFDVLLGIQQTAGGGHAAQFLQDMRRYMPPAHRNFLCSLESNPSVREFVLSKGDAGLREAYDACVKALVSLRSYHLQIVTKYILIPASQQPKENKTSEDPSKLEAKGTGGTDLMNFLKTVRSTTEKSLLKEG

Row | IC50 [nM] | Compound
1 | 20 | Cc1ccc(NC(=O)Nc2cc(-c3ccccc3C(=O)O)ccc2N(CC(F)F)C2CCCCC2)cc1 [Example 196, 4′-(cyclohexyl(2,2-difluoroethyl)amino)-3′-(3-(p-tolyl)ureido)-[1,1′-biphenyl]-2-carboxylic acid]
2 | 1290 | CC1CC(C)CN(c2ccc(-c3ccccc3-c3nnn[nH]3)cc2NC(=O)Nc2ccccc2F)C1 (stereo not drawn) [Example 237]
3 | 110 | Cc1ccc(NC(=O)Nc2cc(-c3ccc(F)cc3C(=O)O)ccc2N(CC(C)C)CC(C)C)cc1 [Example 70, 4′-(diisobutylamino)-4-fluoro-3′-(3-p-tolylureido)biphenyl-2-carboxylic acid]
4 | 2960 | CC(C)CN(CC(C)C)c1ccc(-c2ccccc2-c2nnn[nH]2)cc1NC(=O)NC1CCCCC1 [Example 140, 1-cyclohexyl-3-(4-(diisobutylamino)-2′-(1H-tetrazol-5-yl)biphenyl-3-yl)urea]
5 | 30 | Cc1ccc(NC(=O)Nc2cc(-c3ccc(Cl)cc3C(=O)O)ccc2N(CC(C)C)C2CCCCC2)cc1 [Example 120, 4-chloro-4′-(cyclohexyl(isobutyl)amino)-3′-(3-p-tolylureido)biphenyl-2-carboxylic acid]
6 | 1080 | O=C(Nc1cc(-c2ccccc2-c2nnn[nH]2)ccc1N(CCC(F)(F)F)Cc1ccc(Cl)cc1Cl)Nc1ccccc1C(F)(F)F [Example 335, 1-(4-((2,4-dichlorobenzyl)(3,3,3-trifluoropropyl)amino)-2′-(1H-tetrazol-5-yl)-[1,1′-biphenyl]-3-yl)-3-(2-(trifluoromethyl)phenyl)urea]
7 | 2.28 | CC(C)CN(CC(C)C)c1ccc(-c2ccccc2-c2nnn[nH]2)cc1NC(=O)Nc1ccc(N=[N+]=[N-])cc1 [Example 285, 1-(4-azidophenyl)-3-(4-(diisobutylamino)-2′-(1H-tetrazol-5-yl)-[1,1′-biphenyl]-3-yl)urea]
8 | 240 | CC(C)CN(c1ccc(-c2ccccc2-c2nnn[nH]2)cc1NC(=O)Nc1ccccc1C(F)(F)F)C1CCCCC1 [Example 161, 1-(4-(cyclohexyl(isobutyl)amino)-2′-(1H-tetrazol-5-yl)biphenyl-3-yl)-3-(2-(trifluoromethyl)phenyl)urea]
9 | 1980 | CC(C)CN(CC(C)C)c1ccc(-c2ccccc2-c2nnn[nH]2)cc1NC(=O)NC1CC1 [Example 139, 1-cyclopropyl-3-(4-(diisobutylamino)-2′-(1H-tetrazol-5-yl)biphenyl-3-yl)urea]
10 | 2140 | CC1CC(C)CN(c2ccc(-c3ccccc3-c3nnn[nH]3)cc2NC(=O)Nc2ccc(F)cc2)C1 (stereo not drawn) [Example 236]
11 | 100 | Cc1ccc(NC(=O)Nc2cc(-c3ccccc3C(=O)O)ccc2N(C)C2CCC(F)(F)CC2)cc1 [Example 104, 4′-((4,4-difluoro-cyclohexyl) (methyl)amino)-3′-(3-p-tolylureido)biphenyl-2-carboxylic acid]
12 | 5.19 | [2H]C([2H])(C(C)C)N(c1ccc(-c2ccccc2C(=O)O)cc1NC(=O)Nc1ccc(C)cc1)C1CCCCC1 [Example 30, 4′-(Cyclohexyl(1,1-dideutero-2-methylpropyl)amino)-3′-(3-p-tolylureido)biphenyl-2-carboxylic acid]
13 | 4.79 | Cc1ccc(NC(=O)Nc2cc(-c3ccccc3-c3nnn[nH]3)ccc2N(CCC(F)(F)F)C2CCCCC2)cc1 [Example 195, 1-(4-(cyclohexyl(3,3,3-trifluoropropyl)amino)-2′-(1H-tetrazol-5-yl)-[1,1′-biphenyl]-3-yl)-3-(p-tolyl)urea]
14 | 40 | Cc1ccc(NC(=O)Nc2cc(-c3cc(F)ccc3C(=O)O)ccc2N(CCC2CC2)CC(C)C)cc1 [Example 130, 4′-((2-cyclopropylethyl) (isobutyl)amino)-5-fluoro-3′-(3-p-tolylureido) biphenyl-2-carboxylic acid]
15 | 1940 | Cc1cc(NC(=O)Nc2cc(-c3ccccc3-c3nnn[nH]3)ccc2N2CCC(c3ccccc3)C2)on1 (racemic) [Example 372, (±)-1-(3-Methylisoxazol-5-yl)-3-(4-(3-phenylpyrrolidin-1-yl)-2′-(1H-tetrazol-5-yl)-[1,1′-biphenyl]-3-yl)urea]
16 | 5.26 | CC(C)CN(CCC(C)C(F)(F)F)c1ccc(-c2cc(F)ccc2C(=O)O)cc1NC(=O)Nc1ccccc1F (stereo not drawn) [Example 204, 5-fluoro-3′-(3-(2-fluorophenyl)ureido)-4′-(isobutyl(4,4,4-trifluoro-3-methylbutyl)amino)-[1,1′-biphenyl]-2-carboxylic acid]
17 | 40 | Cc1ccc(NC(=O)Nc2cc(-c3ccccc3C(=O)O)ccc2N(CC(C)C)C(C)C)cc1 [Example 148, 4′-(isobutyl(isopropyl)amino)-3′-(3-p-tolylureido)biphenyl-2-carboxylic acid]
18 | 120 | O=C(Nc1ccc(C2CC2)c(F)c1)Nc1cc(-c2ccccc2-c2nnn[nH]2)ccc1N(CCC(F)(F)F)Cc1ccccn1 [Example 354, 1-(4-cyclopropyl-3-fluorophenyl)-3-(4-((pyridin-2-ylmethyl)(3,3,3-trifluoropropyl)amino)-2′-(1H-tetrazol-5-yl)-[1,1′-biphenyl]-3-yl)urea]

Row | IC50 [nM] | Compound
19 | 190 | COc1ccc(C(=O)O)c(-c2ccc(N(CC(C)C)CC(C)C)c(NC(=O)Nc3ccc(F)cc3F)c2)c1 [Example 160, 3′-(3-(2,4-difluorophenyl)ureido)-4′-(diisobutylamino)-5-methoxybiphenyl-2-carboxylic acid]
20 | 9.53 | Cc1ccc(NC(=O)Nc2cc(-c3ccccc3-c3nnn[nH]3)ccc2N(CCC2CC2)CC(C)C)cc1 [Example 129, 1-(4-((2-cyclopropylethyl) (isobutyl)amino)-2′-(1H-tetrazol-5-yl)biphenyl-3-yl)-3-p-tolylurea]
21 | 8.2 | CC(C)CN(CC(C)C)c1ccc(-c2ccccc2-c2nnn[nH]2)cc1NC(=O)Nc1c(F)cc(F)cc1F [Example 282, 1-(4-(diisobutylamino)-2′-(1H-tetrazol-5-yl)-[1,1′-biphenyl]-3-yl)-3-(2,4,6-trifluorophenyl)urea]
22 | 1.38 | CC(C)CN(c1ccc(-c2ccccc2C(=O)O)cc1NC(=O)Nc1ccccc1F)C1CCC(F)(F)CC1 [Example 510, 4′-((4,4-Difluorocyclohexyl)(isobutyl)amino)-3′-(3-(2-fluorophenyl)ureido)-[1,1′-biphenyl]-2-carboxylic acid]
23 | 9120 | CC(C)CN(CC(C)C)c1ccc(-c2ccccc2-c2nnn[nH]2)cc1NC(=O)NC(C)(C)CC(C)(C)C [Example 288, 1-(4-(Diisobutylamino)-2′-(1H-tetrazol-5-yl)-[1,1′-biphenyl]-3-yl)-3-(2,4,4-trimethylpentan-2-yl)urea]
24 | 7720 | O=C(Nc1ccc(OC(F)(F)F)cc1)Nc1cc(-c2ccccc2-c2nnn[nH]2)ccc1N1CCC(F)(F)C1 [Example 316, 1-(4-(3,3-difluoropyrrolidin-1-yl)-2′-(1H-tetrazol-5-yl)-[1,1′-biphenyl]-3-yl)-3-(4-(trifluoromethoxy)phenyl)urea]
25 | 370 | Cc1ccc(NC(=O)Nc2c(N(CC(C)C)CC(C)C)ccc(-c3ccccc3C(=O)O)c2F)cc1 [Example 26, 4′-(Diisobutylamino)-2′-fluoro-3′-(3-(p-tolyl)ureido)-[1,1′-biphenyl]-2-carboxylic acid]
26 | 30 | CC(C)CN(c1ccc(-c2cc(F)ccc2C(=O)O)cc1NC(=O)Nc1ccc(F)cc1F)C(C)C [Example 158, 3′-(3-(2,4-difluorophenyl)ureido)-5-fluoro-4′-(isobutyl(isopropyl)amino)biphenyl-2-carboxylic acid]
27 | 20 | O=C(Nc1ccc(F)cc1F)Nc1cc(-c2ccccc2-c2nnn[nH]2)ccc1N(CCC(F)(F)F)Cc1ccc(C(F)(F)F)cc1 [Example 330, 1-(2′-(1H-tetrazol-5-yl)-4-((4-(trifluoromethyl)benzyl)(3,3,3-trifluoropropyl)amino)-[1,1′-biphenyl]-3-yl)-3-(2,4-difluorophenyl) urea]
28 | 30 | CCN(CC(C)(C)C)c1ccc(-c2ccccc2-c2nnn[nH]2)cc1NC(=O)Nc1ccccc1F [Example 112, 1-(4-(ethyl(neopentyl)amino)-2′-(1H-tetrazol-5-yl)biphenyl-3-yl)-3-(2-fluorophenyl)urea]
29 | 830 | CC(C)CN(CC(C)C)c1ccc(-c2ccccc2-c2nnn[nH]2)cc1NC(=O)NCC1CCCCC1 [Example 268, 1-(cyclohexylmethyl)-3-(4-(diisobutylamino)-2′-(1H-tetrazol-5-yl)-[1,1′-biphenyl]-3-yl)urea]
30 | 1270 | CC(C)CN(c1ccc(-c2ccccc2C(=O)O)cc1NC(=O)Nc1ccccc1C(F)(F)F)C1CCCCC1 [Example 162, 4′-(cyclohexyl (isobutyl)amino)-3′-(3-(2-(trifluoromethyl)phenyl)ureido)biphenyl-2-carboxylic acid]
31 | 150 | Cc1ccc(NC(=O)Nc2cc(-c3cc(F)ccc3C(=O)O)ccc2N(Cc2ccccc2)CC(F)F)cc1 [Example 21, 4′-(Benzyl(2,2-difluoroethyl)amino)-5-fluoro-3′-(3-(p-tolyl)ureido)-[1,1′-biphenyl]-2-carboxylic acid]
32 | 9.59 | CCCCN(c1ccc(-c2ccccc2C(=O)O)cc1NC(=O)Nc1ccc(C)cc1)C1CCCCC1 [Example 177, 4′-(butyl(cyclohexyl)amino)-3′-(3-(p-tolyl)ureido)-[1,1′-biphenyl]-2-carboxylic acid]
33 | 20 | C#Cc1cccc(NC(=O)Nc2cc(-c3ccccc3-c3nnn[nH]3)ccc2N(CC(C)C)CC(C)C)c1 [Example 241, 1-(4-(diisobutylamino)-2′-(1H-tetrazol-5-yl)-[1,1′-biphenyl]-3-yl)-3-(3-ethynylphenyl)urea]
34 | 660 | Cc1ccc(NC(=O)Nc2cc(-c3ccccc3C(=O)NS(C)(=O)=O)ccc2N(CC(C)C)CC(C)C)cc1 [Example 232, 4′-(Diisobutylamino)-N-(methylsulfonyl)-3′-(3-(p-tolyl)ureido)-[1,1′-biphenyl]-2-carboxamide]
35 | 1740 | COc1ccc(-c2ccc(N(CC(C)C)CC(C)C)c(NC(=O)Nc3ccc(C)cc3)c2)c(NS(=O)(=O)C(F)(F)F)c1 [Example 71, N-(4′-(diisobutylamino)-4-methoxy-3′-(3-p-tolylureido)biphenyl-2-yl)-1,1,1-trifluoromethane-sulfonamide]
36 | 410 | CCC1CCCCN1c1ccc(-c2ccccc2-c2nnn[nH]2)cc1NC(=O)Nc1ccccc1F (stereo not drawn) [Example 109, 1-(4-(2-ethylpiperidin-1-yl)-2′-(1H-tetrazol-5-yl)biphenyl-3-yl)-3-(2-fluorophenyl)urea]
